Values after ≈ are worked out from the molar mass of the structure shown. Read-outs that look alike come from different tables or passages of the source.

What all share (assay type): cell-based
The subject of assay [1] is Mycobacterium avium. In words: MBC, plating of MIC wells and CFU count. The note with it: read-out: Minimum Bactericidal Concentration (MBC).
In assay [2] the test system is Mycobacterium kansasii. In words: MBC, plating of MIC wells and CFU count. The conditions noted are these: read-out: Minimum Bactericidal Concentration (MBC).
The test system of assay [3] is Mycobacterium avium. In words: MIC, micro broth dilution with resazurin readout. The conditions noted are these: read-out: Minimum Inhibitory Concentration (MIC). (In broth dilution the organism is exposed to a series of concentrations in liquid medium.)
Assay [4] relates to Mycobacterium kansasii. In words: MIC, micro broth dilution with resazurin readout. The conditions noted are these: read-out: Minimum Inhibitory Concentration (MIC).
The subject of assay [5] is Mycobacterium abscessus. The experiment in a line: MBC, plating of MIC wells and CFU count. The note with it: Mycobacteroides abscessus, read-out: Minimum Bactericidal Concentration (MBC).
Assay [6] deals with Mycobacterium abscessus. In words: MIC, micro broth dilution with resazurin readout. The conditions noted are these: Mycobacteroides abscessus, read-out: Minimum Inhibitory Concentration (MIC).
Where [7] appears, read: 7H9 Broth, Mycobacterium avium Rough.
Setting [8] is: 7H9 Broth, Mycobacterium avium Smooth.
Setting [9] is: MH Broth, Mycobacterium avium Rough.
The mark [10] stands for this setting: MH Broth, Mycobacterium avium Smooth.

As to `NCC[C@H](O)C(=O)N[C@@H]1C[C@H](N)[C@@H](O[C@H]2O[C@H](CN)[C@@H](O)[C@H](O)[C@H]2O)[C@H](O)[C@H]1O[C@H]1O[C@H](CO)[C@@H](O)[C@H](N)[C@H]1O` [Amikacin], the MBC was over 64 µg/mL in the assay with Mycobacterium avium [1] (setting [7]); over 64 µg/mL in the assay with Mycobacterium avium [1] (setting [8]); over 64 µg/mL in the assay with Mycobacterium avium [1] (setting [9]); over 64 µg/mL in the assay with Mycobacterium avium [1] (setting [10]); 64 µg/mL (≈ 109 µM) in the assay on Mycobacterium kansasii [2] (7H9 Broth); over 64 µg/mL in the assay on Mycobacterium kansasii [2] (MH Broth). For the same molecule, the MBC with Mycobacterium abscessus [5] (7H9 Broth) and in the assay on Mycobacterium abscessus [5] (MH Broth) was over 64 µg/mL each time. The MIC with Mycobacterium avium [3] (setting [7]) was over 64 µg/mL; with Mycobacterium avium [3] (setting [8]) it was 2 µg/mL (≈ 3.42 µM); with Mycobacterium avium [3] (setting [9]), 2 µg/mL (≈ 3.42 µM); with Mycobacterium avium [3] (setting [10]), 2 µg/mL (≈ 3.42 µM); with Mycobacterium kansasii [4] (7H9 Broth), 16 µg/mL (≈ 27.3 µM); with Mycobacterium kansasii [4] (MH Broth), 1 µg/mL (≈ 1.71 µM). Besides, the MIC turned out to be 32 µg/mL (≈ 54.6 µM) in the assay with Mycobacterium abscessus [6] (7H9 Broth) and 16 µg/mL (≈ 27.3 µM) with Mycobacterium abscessus [6] (MH Broth).
Regarding `O=C(O)c1cn(C2CC2)c2cc(N3CCNCC3)c(F)cc2c1=O` [Ciprofloxacin], the MBC with Mycobacterium avium [1] (setting [8]), with Mycobacterium avium [1] (setting [10]), with Mycobacterium kansasii [2] (7H9 Broth), with Mycobacterium kansasii [2] (MH Broth), in the assay with Mycobacterium abscessus [5] (7H9 Broth) and in the assay on Mycobacterium abscessus [5] (MH Broth) was over 64 µg/mL throughout. For the same molecule, the MIC in the assay with Mycobacterium avium [3] (setting [8]) is over 64 µg/mL; in the assay with Mycobacterium avium [3] (setting [10]) it was over 64 µg/mL; in the assay on Mycobacterium kansasii [4] (7H9 Broth) it was over 64 µg/mL; in the assay with Mycobacterium kansasii [4] (MH Broth), over 64 µg/mL; in the assay with Mycobacterium abscessus [6] (7H9 Broth), 16 µg/mL (≈ 48.3 µM); with Mycobacterium abscessus [6] (MH Broth), over 64 µg/mL.

For the origin of these results see patent US20200360352A1, “USE OF RIFAMYCIN-NITROIMIDAZOLE COUPLING MOLECULE” (priority 2019, published 2020).
